Assay [1] concerns Streptococcus pneumoniae ATCC 49619. Briefly: MIC, broth microdilution (CLSI) versus planktonic bacteria. Type of assay: cell-based. As to conditions: Streptococcus pneumoniae ATCC 49619, 16-20 h, mode of three independent experiments; for MIC: ATCC49619, read-out: MIC, Sp ATCC 49619. (Dilution methods test growth across graded concentrations, often in twofold steps.)
Assay [2] has as its system Pseudomonas aeruginosa ATCC 27853. The assay is described as above. As to conditions: Pseudomonas aeruginosa ATCC 27853, 16-20 h, mode of three independent experiments; for MIC: ATCC27853, read-out: MIC, Pa ATCC 27853. Type of assay: cell-based.
Assay [3] relates to Haemophilus influenzae ATCC 49247. Described as above. Type of assay: cell-based. As to conditions: Haemophilus influenzae ATCC 49247, 16-20 h, mode of three independent experiments; for MIC: ATCC49247, read-out: MIC, Hi ATCC 49247.
In assay [4] the test system is human hepatic cell line (HepG2 ATCC HB-8065). The assay can be described thus: Human cell viability assay (CellTiter-Glo). As to conditions: for IC50: Homo sapiens, HepG2, 24 h, read-out: IC50 (μg/mL) HepG2. In general terms: In ATP-based viability assays light output follows the ATP content of the culture.
The test system of a further assay is E. coli MG1655 S83L. Type of assay: cell-based, Escherichia coli.
The subject of a further assay is E. coli MG1655 D87G. Type of assay: cell-based, Escherichia coli.
Assay [5] relates to Enterobacter cloacae NCTC 13406. Briefly: MIC, broth microdilution (CLSI) versus planktonic bacteria. Type of assay: cell-based. As to conditions: Enterobacter cloacae NCTC 13406, 16-20 h, mode of three independent experiments; for MIC: NCTC13406, read-out: MIC, Ecl NCTC 13406.
Another assay deals with E. coli MG1655. The assay is described as above. It counts as cell-based, Escherichia coli. As to conditions: for MIC: Escherichia coli, MG1655, read-out: MIC, Ec MG1655 WT.
Another assay deals with E. coli NCTC 13476. The assay is described as above. As to conditions: Escherichia coli NCTC 13476, 16-20 h, mode of three independent experiments; for MIC: NCTC13476, read-out: MIC, Ec NCTC 13476. It counts as cell-based.
In assay [6] the test system is Acinetobacter baumannii ATCC 19606. The description is as above. It counts as cell-based. As to conditions: Acinetobacter baumannii ATCC 19606, 16-20 h, mode of three independent experiments; for MIC: ATCC19606, read-out: MIC, Ab ATCC 19606.
In assay [7] the test system is Staphylococcus aureus ATCC 29213. Described as above. Type of assay: cell-based. As to conditions: Staphylococcus aureus ATCC 29213, 16-20 h, mode of three independent experiments; for MIC: ATCC29213, read-out: MIC, Sa ATCC 29213.
The test system of a further assay is E. coli ATCC BAA-2452. The description is as above. It counts as cell-based. As to conditions: Escherichia coli ATCC BAA-2452, 16-20 h, mode of three independent experiments; for MIC: read-out: MIC, Ec ATCC BAA 2452.
The test system of assay [8] is Escherichia coli ATCC 25922. The description is as above. It counts as cell-based. As to conditions: Escherichia coli ATCC 25922, 16-20 h, mode of three independent experiments; for MIC: ATCC25922, read-out: MIC, Ec ATCC 25922.
In assay [9] the test system is Acinetobacter baumannii NCTC 13420. The assay is described as above. As to conditions: Acinetobacter baumannii NCTC 13420, 16-20 h, mode of three independent experiments; for MIC: NCTC13420, read-out: MIC, Ab NCTC 13420. Type of assay: cell-based.
Setting [10] is: compared to the isogenic parent strain E. coli MG1655, S83L mutation on DNA gyrase subunit GyrA.
Where [11] appears, read: compared to the isogenic parent strain E. coli MG1655, D87G mutation on DNA gyrase subunit GyrA.

Converted amounts (≈) assume the structure as drawn. Like-named read-outs stand apart in the source and are kept apart here.

Here are results for 6 compounds from US10487093B2, “Heterocyclic compounds, in particular 2-oxo-4,4,5,5,6,6,7,7-octahydrobenzoxazole derivatives, and their use as antibacterial compounds” (priority 2016, dated 2019).

In the case of `COc1cnnc(-c2cccc(CN[C@@H]3CC[C@@H]4[C@@H](C3)OC(=O)N4c3ccc4c(n3)NC(=O)CO4)c2O)c1` [Compound 72, (3aR,6R,7aR)-6-({[2-hydroxy-3-(5-methoxypyridazin-3-yl)phenyl]methyl}amino)-3-{3-oxo-2H,3H,4H-pyrido[3,2-b][1,4]oxazin-6-yl}-octahydro-1,3-benzoxazol-2-one], the MIC in [1] is 1 to 10 µg/mL (≈ 1.93 to 19.3 µM); in assay [2] it was 1 to 10 µg/mL (≈ 1.93 to 19.3 µM); in assay [3], less than 1 µg/mL; in assay [5], 1 to 10 µg/mL (≈ 1.93 to 19.3 µM); in the assay on E. coli MG1655, less than 1 µg/mL; with E. coli NCTC 13476 it was 1 to 10 µg/mL (≈ 1.93 to 19.3 µM). For the same compound, the MIC (in [6]; in assay [7]; in the assay on E. coli ATCC BAA-2452; in [8]; in assay [9]) was less than 1 µg/mL each time. Besides, in assay [4], the IC50 fell in the range of 10 to 100 µg/mL (≈ 19.3 to 193 µM). In addition, the “Fold increase in MIC, E. coli MG1655 S83L” value with E. coli MG1655 S83L (setting [10]) was found to be 0.5 fold. For the same compound, the “Fold increase in MIC, E. coli MG1655 D87G” value in the assay on E. coli MG1655 D87G (setting [11]) worked out at 0.5 fold.

In the case of `O=C1COc2ccc(N3C(=O)O[C@@H]4C[C@H](NCCCn5c(=O)cnc6cc(F)c(F)cc65)CC[C@H]43)nc2N1` [Compound 88, 1-(3-{[(3aR,6R,7aR)-2-oxo-3-{3-oxo-2H,3H,4H-pyrido[3,2-b][1,4]oxazin-6-yl}-octahydro-1,3-benzoxazol-6-yl]amino}propyl)-6,7-difluoro-1,2-dihydroquinoxalin-2-one], the MIC in [1] is less than 1 µg/mL; in assay [2], 1 to 10 µg/mL (≈ 1.9 to 19 µM); in assay [3] it was less than 1 µg/mL; in assay [5], less than 1 µg/mL; with E. coli MG1655 it was less than 1 µg/mL; in the assay on E. coli NCTC 13476, less than 1 µg/mL. The MIC (in assay [6]; in [7]; in the assay on E. coli ATCC BAA-2452; in assay [8]; in [9]) was less than 1 µg/mL in each case. In assay [4], the IC50 fell in the range of 10 to 100 µg/mL (≈ 19 to 190 µM). In addition, in the assay on E. coli MG1655 S83L (setting [10]), the “Fold increase in MIC, E. coli MG1655 S83L” value amounted to 2 fold. The “Fold increase in MIC, E. coli MG1655 D87G” value with E. coli MG1655 D87G (setting [11]) is reported as 1 fold.

Turning to `COc1ccc2ccc(=O)n(CCN[C@H]3CC[C@H]4[C@H](C3)OC(=O)N4c3ncc4c(n3)NC(=O)CO4)c2n1` [Compound 67, 1-(2-{[(3aS,6S,7aS)-2-oxo-3-{7-oxo-6H,7H,8H-pyrimido[5,4-b][1,4]oxazin-2-yl}-octahydro-1,3-benzoxazol-6-yl]amino}ethyl)-7-methoxy-1,2-dihydro-1,8-naphthyridin-2-one], the MIC in assay [1] was less than 1 µg/mL; in assay [2], 1 to 10 µg/mL (≈ 1.97 to 19.7 µM); in [3], less than 1 µg/mL; in assay [5] it was 1 to 10 µg/mL (≈ 1.97 to 19.7 µM); in the assay with E. coli MG1655, less than 1 µg/mL; with E. coli NCTC 13476 it was 1 to 10 µg/mL (≈ 1.97 to 19.7 µM). For the same compound, the MIC in assay [6] was 1 to 10 µg/mL (≈ 1.97 to 19.7 µM); in [7] it was less than 1 µg/mL; in the assay with E. coli ATCC BAA-2452, 1 to 10 µg/mL (≈ 1.97 to 19.7 µM); in assay [8], less than 1 µg/mL; in [9] it was less than 1 µg/mL. The IC50 in assay [4] is greater than 100 µg/mL. In the assay on E. coli MG1655 S83L (setting [10]), the “Fold increase in MIC, E. coli MG1655 S83L” value is on record as 1 fold. Moreover, in the assay with E. coli MG1655 D87G (setting [11]), the “Fold increase in MIC, E. coli MG1655 D87G” value is given as 1 fold.

Regarding `COc1ccc2ccc(=O)n(CCCN[C@H]3CC[C@H]4[C@H](C3)OC(=O)N4c3ccc4c(n3)NC(=O)CS4)c2n1` [Compound 85, 1-(3-{[(3aS,6S,7aS)-2-oxo-3-{3-oxo-2H,3H,4H-pyrido[3,2-b][1,4]thiazin-6-yl}-octahydro-1,3-benzoxazol-6-yl]amino}propyl)-7-methoxy-1,2-dihydro-1,8-naphthyridin-2-one], the MIC in [1] was less than 1 µg/mL; in [2], 1 to 10 µg/mL (≈ 1.86 to 18.6 µM); in assay [3], less than 1 µg/mL; in [5], less than 1 µg/mL; in the assay on E. coli MG1655, less than 1 µg/mL; in the assay on E. coli NCTC 13476, less than 1 µg/mL. Also, the MIC (in [6]; in [7]; in the assay on E. coli ATCC BAA-2452; in assay [8]; in [9]) was less than 1 µg/mL throughout. The IC50 in assay [4] was 10 to 100 µg/mL (≈ 18.6 to 186 µM). For the same compound, the “Fold increase in MIC, E. coli MG1655 S83L” value with E. coli MG1655 S83L (setting [10]) is 1 fold. Besides, the “Fold increase in MIC, E. coli MG1655 D87G” value in the assay on E. coli MG1655 D87G (setting [11]) is 1 fold.

Consider `N#Cc1ccc2ccc(=O)n(CCN[C@H]3CC[C@H]4[C@@H](C3)OC(=O)N4c3ccc4c(n3)NC(=O)CO4)c2c1` [Compound 14, 1-(2-{[(3aS,6S,7aR)-2-oxo-3-{3-oxo-2H,3H,4H-pyrido[3,2-b][1,4]oxazin-6-yl}-octahydro-1,3-benzoxazol-6-yl]amino}ethyl)-2-oxo-1,2-dihydroquinoline-7-carbonitrile], for which the MIC (in assay [1]; in assay [2]; in [3]; in assay [5]; in the assay on E. coli MG1655; in the assay on E. coli NCTC 13476) was less than 1 µg/mL throughout. Moreover, the MIC (in assay [6]; in [7]; in the assay with E. coli ATCC BAA-2452; in assay [8]; in assay [9]) was less than 1 µg/mL each time. Also, in assay [4], the IC50 is greater than 100 µg/mL. In addition, the “Fold increase in MIC, E. coli MG1655 S83L” value in the assay on E. coli MG1655 S83L (setting [10]) was 2 fold. In addition, the “Fold increase in MIC, E. coli MG1655 D87G” value in the assay with E. coli MG1655 D87G (setting [11]) is recorded as 2 fold.

Consider “1-[(2S)-3-{[(3aR,6R,7aR)-2-oxo-3-{3-oxo-2H,3H,4H-pyrido[3,2-b][1,4]oxazin-6-yl}-octahydro-1,3-benzoxazol-6-yl]amino}-2-hydroxypropyl]-7-fluoro-1,2-dihydroquinoxalin-2-one & 1-[(2R)-3-{[(3aR,6R,7aR)-2-oxo-3-{3-oxo-2H,3H,4H-pyrido[3,2-b][1,4]oxazin-6-yl}-octahydro-1,3-benzoxazol-6-yl]amino}-2-hydroxypropyl]-7-fluoro-1,2-dihydroquinoxalin-2-one [Compound 94]”, for which the “MIC, Sp ATCC 49619” value in [1] is “A (an MIC (in μg/mL) of less or equal to 1 is assigned the letter A)”. The “MIC, Pa ATCC 27853” value in [2] is “B (a MIC of from 1 to 10 is assigned the letter B)”. In [3], the “MIC, Hi ATCC 49247” value is “A (an MIC (in μg/mL) of less or equal to 1 is assigned the letter A)”. In assay [4] (HepG2 cell viability, 24 h, CellTiter-Glo), the “IC50 (μg/mL) HepG2” value was “A (an IC50 of over 100 is assigned the letter A)”. Besides, in the assay with E. coli MG1655 S83L, the “Fold increase in MIC, E. coli MG1655 S83L” value worked out at 1 fold. Besides, in the assay with E. coli MG1655 D87G, the “Fold increase in MIC, E. coli MG1655 D87G” value is given as 2 fold. The “MIC, Ecl NCTC 13406” value in [5] is given as “B (a MIC of from 1 to 10 is assigned the letter B)”. In the assay with E. coli MG1655 (Escherichia coli MG1655 WT, 16-20 h, mode of three independent experiments), the “MIC, Ec MG1655 WT” value is recorded as “A (an MIC (in μg/mL) of less or equal to 1 is assigned the letter A)”. For the same compound, the “MIC, Ec NCTC 13476” value with E. coli NCTC 13476 was “A (an MIC (in μg/mL) of less or equal to 1 is assigned the letter A)”. In addition, the “MIC, Ab ATCC 19606” value in assay [6] was “B (a MIC of from 1 to 10 is assigned the letter B)”. For the same compound, the “MIC, Sa ATCC 29213” value in assay [7] is “A (an MIC (in μg/mL) of less or equal to 1 is assigned the letter A)”. For the same compound, the “MIC, Ec ATCC BAA 2452” value in the assay on E. coli ATCC BAA-2452 is on record as “A (an MIC (in μg/mL) of less or equal to 1 is assigned the letter A)”. Further, the “MIC, Ec ATCC 25922” value in [8] is recorded as “A (an MIC (in μg/mL) of less or equal to 1 is assigned the letter A)”. The “MIC, Ab NCTC 13420” value in [9] is given as “B (a MIC of from 1 to 10 is assigned the letter B)”.
